A short description of this assay: Displacement of [3H]-AVP from human V1b receptor after […] by liquid scintillation counting.

The source of these data is BindingDB's records for doi:10.1016/j.bmc.2012.02.019 (Emory University, 2012).

Regarding `CS(=O)(=O)N1CCC(Oc2ccc(CC(=O)N3CCC(N4C(=O)CCc5ccccc54)CC3)c(OC/C=C/I)c2)CC1`, the Ki is > 1000 nM.

As a reminder, the Ki is the dissociation constant of the complex between target and ligand, obtained from inhibition or displacement.
